Key:
Rat-1 cells = assay: DNA synthesis ([3H]-thymidine incorporation) in EGF-stimulated Rat-1 cells; format: cell-based; details: 40 ng/ml EGF, 20 μg/ml coating, FIG. 6
Procedure: Rat-1 cells were plated at 1×10^5 cells/well on 24-well plates that had been coated for 12 hours either with 20 μg/ml of vitronectin or 20 μg/ml of type I collagen. Cells were incubated for 36 hours in Dulbecco's modified Eagle's medium containing 0.1% bovine serum albumin followed by addition of buffer or 40 ng/ml EGF (Boehringer Mannheim). After 15 hours, the cells were pulse-labeled with 1 μCi/ml [^3 H]-thymidine (specific activity 6.7 Ci/mmol, DuPont NEN) for 3 hours and thymidine incorporation into DNA was determined by liquid scintillation counting.
After being serum-starved, the cells were treated with buffer only (samples 1 and 2) or with EGF (samples 3 and 4). Data points are the average of triplicate samples.

NRK cells = assay: DNA synthesis in IGF-1-treated NRK cells on vitronectin, collagen or laminin; format: cell-based; details: data not shown
[1] = test system: human foreskin fibroblasts; assay: DNA synthesis ([3H]-thymidine incorporation) in PDGF-stimulated human foreskin fibroblasts; format: cell-based; details: 40 ng/ml PDGF-BB, 20 μg/ml coating, FIG. 5 column 3 vs 4
Procedure: Human foreskin fibroblasts (Coriell) were plated at 1×10^5 cells/well on 24-well plates that had been coated for 12 hours either with 20 μg/ml of vitronectin of 20 μg/ml of type I collagen. Cells were incubated for 36 hours in Dulbecco's modified Eagle's medium containing 0.1% bovine serum albumin followed by addition of buffer or 40 ng/ml PDGF-BB (Boehringer Mannheim). After 15 hours, the cells were pulse-labeled with 1 μCi/ml [^3 H]-thymidine (specific activity 6.7 Ci/mmol, DuPont NEN) for 3 hours and thymidine incorporation into DNA was determined by liquid scintillation counting.
Cells were serum-starved and treated with buffer only (samples 1 and 2) or with PDGF (samples 3 and 4). Data points are the average of duplicate samples.

[2] = test system: FG-B cells (αv β3 integrin positive human pancreatic carcinoma cells); assay: DNA synthesis ([3H]-thymidine incorporation) in insulin-stimulated FG-B cells on vitronectin or type I collagen; format: cell-based; details: 100 mM insulin, plates coated with 10 μg/ml vitronectin or type I collagen, FIG. 4 columns 9, 10
Procedure: (§1) FG-B (columns 1, 2, 5, 6, 9, and 10) and FG-C cells (columns 3, 4, 7, 8, 11, and 12) were plated at 1×10^5 cells/well on 24-well plates that had been coated either with vitronectin (dark column) or type I collagen (open column). Plates were coated with 10 μg/ml of either vitronectin or type I collagen for 12 hours followed by blocking with 0.5% bovine serum albumin for 2 hours. Cells were incubated for 36 hours in DMEM containing 10% FCS (columns 1 to 4), or in DMEM containing 0.1% BSA followed by addition of buffer (columns 5 to 8) or 100 mM insulin (columns 9 to 12). FCS is used as a control because it provides maximal stimulation owing to the presence of high levels of growth factors and adhesion proteins.
(§2) After 15 hours, the cells were pulse-labeled with 1 μCi/ml [^3 H]-thymidine (specific activity 6.7 Ci/mmol, DuPont NEN) for 3 hours and thymidine incorporation into DNA was determined by trichloroacetic acid precipitation and liquid scintillation counting. Error bars indicate the standard error of triplicate determinations.

[3] = test system: FG-C cells (αv β3 integrin negative human pancreatic carcinoma cells); assay: DNA synthesis ([3H]-thymidine incorporation) in insulin-stimulated FG-C cells on vitronectin or type I collagen; format: cell-based; details: lack αv β3, FIG. 4 columns 3, 4, 7, 8, 11, 12
Procedure: as §1, §2

[4] = test system: αv β3 integrin-IRS-1 association; assay: Association of IRS-1 with the vitronectin receptor (αv β3) in insulin-stimulated HIRcB cells, immunoprecipitation/immunoblot densitometry; format: cell-based, rat
Procedure: HIRcB cells were grown to 80% confluency in Dulbeccos's modified Eagle's medium (DMEM) containing 10% fetal calf serum (FCS) and 500 nM methotrexate, incubated in DMEM +0.1% BSA for 36 hours, and either left quiescent, or stimulated with 100 nM insulin (Sigma) for 3 minutes. Cell monolayers were rinsed with PBS, frozen with liquid nitrogen and lysed in NP-40 lysis buffer (20 mM Tris-HCl (pH 8.0), 1% NP-40, 10% glycerol, 137 mM NaCl, 1 mM CaCl2, 1 mM MgCl2, 1 mM sodium orthovanadate, 50 mM sodium fluoride, 1 mM phenylmethylsulfonylfluoride, 0.1 U/ml aprotinin, 10 μg/ml pepstatin A). HIRcB cells were immunoprecipitated with anti-αv β3 237 according to Suzuki et al., PNAS USA 83:8614 (1986), as shown in lanes 1 and 3, 237 preimmune serum in lane 2, anti-αv β3 1343 in lane 4, anti-αv β3 in lane 5, anti-α5 β1488 in lane 6 (made according to Argraves et al., J. Cell Biol. 105:1183 (1987)) and an unrelated rabbit antiserum (lane 7). Anti-αv β3 1343 was obtained from a person (Telios Pharmaceuticals, Inc.) and anti-αIIb β3 from Dr. Elisabetta Dejana (Mario Negri Institute, Milan, Italy). Three anti-α5 β1 antibodies and six unrelated polyclonal antibodies tested gave results similar to those shown in lanes 6 and 7. […] In lane 8, anti-αv β3 237 immunocomplexes from insulin-treated cells were dissociated and reprecipitated with the same antibody as follows. […]

[5] = test system: HIRcB, NIH 3T3, NRK, HT29, UCLA-P3 and Panc-1 cells; assay: Insulin responsiveness in a panel of αv β3 and αv β5 expressing cell lines on different substrates; format: cell-based; details: panel of six cell lines
Description: A correlation between αv β3 expression and increased insulin responsiveness on vitronectin was also found in a panel of three cell lines expressing αv β3 and three lines expressing only αv β5. […] All the cell lines attached equally to vitronectin. NRK, HT29, UCLA-P3 and Panc-1 attached also to laminin and collagen, and HIRcB and NIH 3T3 cells attached to laminin. The attachment to laminin and collagen was inhibited by anti-β1 antibodies (Vuori and Ruoslahti, unpublished data, and Hayman et al., J. Cell Biol. 100:1948 (1985); Hayashi et al., J. Cell biol. 110:175 (1990); Schreiner et al., Clin. Expl. Metastasis 9:163 (1991); and Cheresh et al., supra).

Q: With “EGF: Epidermal growth factor (Boehringer Mannheim) (NSDSECPLSHDGYCLHDGVCMYIEALDKYACNCVVGYIGERCQYRDLKWWELR; UniProt P01133 971-1023, looked up)” as the substance, how does the “DNA synthesis response to EGF on vitronectin versus collagen” value (Rat-1 cells) read?
A: same response

Q: Which “higher DNA synthesis in response to IGF-1 when plated on vitronectin than on collagen or laminin” value (NRK cells) does the source give for “IGF-1: insulin-like growth factor (IGF-1), signals through IRS-1” here?
A: about 2.3 fold

Q: “PDGF: platelet derived growth factor, PDGF-BB (Boehringer Mannheim)” was tested. Which “higher DNA synthesis in response to PDGF when plated on vitronectin than on collagen” value [1] did it give?
A: about 2.3 fold

Q: How did the “higher DNA synthesis in response to insulin when plated on vitronectin than on collagen” value [2] turn out when insulin was run?
A: about 2.5 fold

Q: What about the “difference in the DNA synthesis response on vitronectin and collagen” value [3] of the same substance?
A: no difference

Q: What about the “time of insulin stimulation to maximal IRS-1-vitronectin receptor association” value ([4]; HIRcB cells) of the same substance?
A: 3 min

Q: And the “IRS-1 complexed with the vitronectin receptor” value ([4]; insulin-stimulated HIRcB cells, share of IRS-1 of total cell lysate)?
A: Five to eight

Q: What about the “effect of attachment to laminin on insulin responsiveness” value [5] of the same substance?
A: did not increase
